Source: paper PMC6337650 (Molecules, 2018)

Key:
HL-60 cells = test system: HL-60 cells; parameters: method as in PMID 26653151, PMID 25405286; conditions: Figure 2; read-out: IC50 against HL-60 cells; cited from earlier work
T24 cells = conditions: Figure 2; read-out: IC50 against T24 cells; cited from earlier work
HT29 cells = conditions: cell line printed as HT24 in b5; read-out: IC50 against HT24 cell line; cited from earlier work
HCT-116 cells = experiment: MTT antiproliferative assay, HCT-116; format: cell-based, human; conditions: Homo sapiens, HCT-116, 48 h, MTT, mean ± SD, n=3; for inhibition at 100 µM: read-out: % Growth Inhibition at 100 μM HCT-116
Method: (§1) The antiproliferative activity of the target compounds against a normal L02 cell line and the three different human cancer cell lines viz. colorectal (HCT-116), liver (BEL-7402) and liver (HepG2) were evaluated using a standard MTT-based colorimetric assay. All cell lines were obtained from the Key Laboratory of Natural Resources and Functional Molecules of the Changbai Mountain (Yanbian University, Jilin, China) and maintained in Dulbecco’s modified Eagle’s medium (DMEM) and RPMI Media 1640 (RPMI1640), supplemented with 10% fetal bovine serum (FBS) at 37 °C in a humidified atmosphere containing 5% CO2.
(§2) Cells were plated in 96-well plates at appropriate densities to ensure exponential growth throughout the experimental period (9 × 10^3 cells per well) and then allowed to adhere for 24 h. Cells were then treated for 48 h with four serial concentrations (1, 10, 50 and 100 µM) of each compound. 5-fluorouracil (5-FU) was used as a positive control. After 48 h of incubation, 10 µL of MTT solution was added to each well to a final concentration of 2 mg/mL. Plates were then incubated for a further 4 h. After incubation, the MTT solution was removed and 150 µL of DMSO was added to each well for coloration. The plates were shaken vigorously for 10 min at room temperature to ensure complete solubilization. The optical density (OD) was read on a microplate reader (ELx800, BioTek, Highland Park, Winooski, VT, USA) at a wavelength of 492 nm and the data were subsequently analyzed. The percentage of cell growth inhibition was calculated from the following equation: Inhibitory rate (%) = [(1 − (ODtreated-ODblank)/(ODcontrol-ODblank)] × 100.(1)

HepG2 cells = experiment: MTT antiproliferative assay, HepG2; format: cell-based, human; conditions: Homo sapiens, HepG2, 48 h, MTT, mean ± SD, n=3; for inhibition at 100 µM: read-out: % Growth Inhibition at 100 μM HepG2
Method: as §1, §2

BEL-7402 cells = experiment: MTT antiproliferative assay, BEL-7402; format: cell-based, human; conditions: Homo sapiens, Bel-7402, 48 h, MTT, mean ± SD, n=3; for inhibition at 100 µM: read-out: % Growth Inhibition at 100 μM BEL-7402
Method: as §1, §2

L02 cells = experiment: MTT assay on normal liver cells L02; format: cell-based; conditions: Homo sapiens, normal liver cells, 48 h, MTT, Table 2, read-out: IC50 Values (μM) L02
Method: as §1
as §2, with “5-fluorouracil (5-FU) was used as a positive control.” left out

AGS cells = conditions: read-out: IC50 against AGS cells; cited from earlier work
HeLa cells = conditions: read-out: IC50 against HeLa cells; cited from earlier work

| Compound | inhibition at 100 µM (HCT-116 cells) | IC50 (HCT-116 cells) | inhibition at 100 µM (HepG2 cells) | IC50 (HepG2 cells) | inhibition at 100 µM (BEL-7402 cells) | IC50 (BEL-7402 cells) | melting point | IC50 (L02 cells) | other results |
| --- | --- | --- | --- | --- | --- | --- | --- | --- | --- |
| COC(=O)[C@]1(C)CCC[C@@]2(C)[C@@H]3CC[C@@]4(C)C[C@@]3(C=C4c3cn(CCCc4ccccc4)nn3)CC[C@@H]21 [Compound E] |  |  |  |  |  |  |  |  | IC50 (HL-60 cells): 25.6 µM |
| CCOP(=O)(OCC)C(NC(=O)[C@]12CC[C@@H](C)[C@H](C)[C@H]1C1=CC[C@@H]3[C@@]4(C)C[C@@H](OC(C)=O)[C@H](OC(C)=O)[C@@](C)(COC(C)=O)[C@@H]4CC[C@@]3(C)[C@]1(C)CC2)c1ccccc1Cl (stereo partly shown) [Compound D] |  |  |  |  |  |  |  |  | IC50 (T24 cells): 6.59 µM |
| CC(=O)O[C@H]1CC[C@@]2(C)C(CC[C@]3(C)C2CC=C2C4CC(C)(C)CC[C@]4(C(=O)NCCN4CCCC4)CC[C@]23C)C1(C)C (stereo partly shown) [Compound B] |  |  |  |  |  |  |  |  | IC50 (HT29 cells): 1.3 µM |
| C[C@@]12CC[C@@H]3[C@@](CC[C@H]4[C@@]3(C)CCC[C@@]4(C)C(=O)OCC(=O)Nc3ccc([N+](=O)[O-])cc3)(CC1=O)C2 [Compound 4h, 2-((4-nitrophenyl)amino)-2-oxoethyl(4R,4aS,6aR,9S,11aR,11bS)-4,9,11b-trimethyl-8-oxotetradecahydro-6a,9-methanocyclohepta[a]naphthalene-4-carboxylate] | 55.4 ± 2.55% | > 100 µM | 76.5 ± 1% | 14.1 ± 0.27 µM | 71.4 ± 2.36% | 12.14 ± 0.12 µM | 189 to 190 °C | > 100 µM |  |
| COC(=O)[C@@H](NC(=O)[C@]1(C)CCC[C@@]2(C)[C@@H]3CC[C@@]4(C)C[C@]3(CC[C@@H]21)CC4=O)c1ccccc1 [Compound 3a, Methyl(S)-2-phenyl-2-((4R,4aS,6aR,9S,11aR,11bS)-4,9,11b-trimethyl-8-oxotetradecahydro-6a,9-methanocyclohepta[a]naphthalene-4-carboxamido)acetate] | 86.26 ± 0.59% | 40.4 ± 0.97 µM | 75.25 ± 0.56% | > 100 µM | 80 ± 0.95% | > 100 µM | 143 to 145 °C | > 100 µM |  |
| CN(C)CCNC(=O)[C@]1(C)CCC[C@@]2(C)[C@@H]3CC[C@@]4(C)C[C@]3(CC[C@@H]21)CC4=O [Compound 1b, (4R,4aS,6aR,9S,11aR,11bS)-N-(2-(dimethylamino)ethyl)-4,9,11b-trimethyl-8-oxotetradecahydro-6a,9-methanocyclohepta[a]naphthalene-4-carboxamide] | 76.6 ± 1.78% | 24 ± 1.2 µM | 57 ± 2.35% | > 100 µM | 88.5 ± 2.02% | > 100 µM | 102 to 103 °C | > 100 µM |  |
| COC(=O)C(Cc1c[nH]c2ccccc12)NC(=O)[C@]1(C)CC[C@]2(C)CC[C@]3(C)C4=CC=C5C(=CC(=O)C(O)=C5C)[C@]4(C)CC[C@@]3(C)C2C1 (stereo partly shown) [Compound C] |  |  |  |  |  |  |  |  | IC50 (AGS cells): 0.44 µM |
| C[C@@]12CC[C@@H]3[C@@](CC[C@H]4[C@@]3(C)CCC[C@@]4(C)C(=O)OCC(=O)NCc3cn(-c4ccc(Cl)cc4)nn3)(CC1=O)C2 [Compound 5b, 2-(((1-(4-chlorophenyl)-1H-1,2,3-triazol-4-yl)methyl)amino)-2-oxoethyl(4R,4aS,6aR,9S,11aR,11bS)-4,9,11b-trimethyl-8-oxotetradecahydro-6a,9-methanocyclohepta[a]naphthalene-4-carboxylate] | 85.6 ± 1.34% | 7.44 ± 0.37 µM | 82.1 ± 1.82% | 11.7 ± 0.23 µM | 90.5 ± 1.04% | 22.5 ± 0.58 µM | 80 to 82 °C | > 100 µM |  |
| CC(=O)O[C@H]1CC[C@@]2(C)C(CC[C@]3(C)C2CC=C2C4[C@@H](C)[C@H](C)CC[C@]4(C(=O)Nc4ccccc4)CC[C@]23C)C1(C)C (stereo partly shown) [Compound A] |  |  |  |  |  |  |  |  | IC50 (HeLa cells): 1.63 µM |
